# Experiments:
# [1] = test system: PKCδ-GFP fusion protein; experiment: PKCδ-GFP translocation assay in living CHO-k1 cells (confocal microscopy); format: cell-based, Chinese hamster; settings: for concentration* (minimum effective concentration required to induce translocation of PKC-GFP to the membrane) / % Translocation: CHO-k1 cells; for % Translocation: maximum translocation of PKCδ-GFP to the plasma membrane at the concentration printed in the same cell, SUW212: only brief translocation observed; for PKC translocation behavior / dynamics of PKC activation: time course, FIG. 6 panels C-D
# Protocol: Because a prerequisite for PKC pathway involvement is binding to PKC, compounds were initially evaluated for PKC affinity in a cell-free competitive binding assay with tritiated phorbol dibutyrate ([^3H]-PDBu). Assays were performed with representative members of both the conventional (PKCα) and novel (PKCδ) PKC families. Subsequently, compounds were assayed for PKC activation in living cells using an isoform translocation assay.
# Chinese hamster ovary factor K1 (CHO-k1, ATCC) cells were cultured in F-12 Kaighn's media (Hyclone, 10% fetal bovine serum, 1% penicillin/streptomycin added, referred to as F-12+/+ below) at 37° C. in an incubator (5% CO2). Cell cultures were maintained by splitting cells 1:3 when they reached ˜75-100% confluence (every 2-3 days) as follows:
# 1 mL of the cell suspension was then added to 9 mL of fresh F-12+/+ and the sample was sub-cultured until reaching confluence (˜2-3 days).
# Cells were counted using a Countess II Automated Cell Counter (Fisher). The cell suspension was diluted to 240,000 cells/mL with fresh F-12+/+ and 2.5 mL of this diluted stock was added to one well in a 6-well plate. The cells were then cultured for 24 hours.
# F-12+/+ was aspirated and cells were washed with F-12−/−. 2 mL of fresh F-12−/− was then added to each well, taking care not to disturb adherent cells. For each well of CHO-k1 cells, 12.5 μL Lipofectamine 2000 reagent (Invitrogen) was added to 250 μL Opti-MEM reduced serum media (Invitrogen) in a polypropylene tube and incubated for 20 minutes at RT. Meanwhile, for each well, 4 μg of PKCδ-GFP pDNA and 250 μL Opti-MEM reduced serum media was added to a separate polypropylene tube. 250 μL of the Lipofectamine 2000 suspension was added to the DNA suspension and the solution incubated for 30 minutes at RT. 500 μL of the Lipofectamine/DNA suspension was added to the respective wells of the 6-well plate. The cells were then incubated at 37° C. (5% CO2) for ˜24 hrs.
# F-12+/+ was aspirated and cells were washed with F-12−/−. 2.4 mL of fresh F-12−/− was then added to each well, taking care not to disturb adherent cells. A 4 μg aliquot of PKCδ-GFP pDNA was added to PBS (pH 5.5, final volume 100 μL). 5.6 μL of DA 13:11 (2 mM stock in DMSO) was then added to the DNA solution, and the mixture was gently mixed (by flicking) for 20 seconds, at which point it was added directly to the respective wells of the 6-well plate. The cells were then incubated at 37° C. (5% C02) for ˜24 hrs.
# After incubation, the media was aspirated and cells were washed with PBS (2.0 mL) and trypsinized (500 μL). The cell suspension was then diluted with 2.0 mL F-12+/+. 200 μL aliquots were added to 3 wells of a Lab-Tek II 4-well chambered coverglass slide (Fisher), producing 4 slides in total, each with three wells of cells. The cell suspension was directly diluted with 600 μL of additional F-12+/+. The resulting samples were incubated for ˜24 hrs. prior to imaging.
# Fluorescent images were obtained using a Leica SP8 White Light Confocal microscope and the Leica AF software package. Prior to analysis, media was aspirated and 800 μL of PBS (Hyclone, without Ca^2+ or Mg^2+) supplemented with glucose (10 mM) was added to each well of the chambered coverglass slide. Bryostatin and bryostatin analogs were diluted to the appropriate concentration in 200 μL of 10 mM glucose in PBS. Cells were located for imaging and data was recorded for three wells in parallel, imaging at predetermined positions in each well using adaptive focus control. Cells were imaged at 30 second intervals following the addition of compound (set to t=0) for 20-40 minutes. Data were recorded at room temperature. Images were exported as .lif files and fluorescence intensity was analyzed using FIJI (NIH) software.
# [2] = test system: CD22 surface expression in NALM6 cells; experiment: CD22 surface expression assay by flow cytometry; format: cell-based, human; settings: NALM6 cells; for fold induction at 0.001 µM: Homo sapiens, NALM-6, read-out: Fold increase CD22 expression; for fold induction at 0.001 µM / Fold increase CD22 expression: At 1 nM, relative to DMSO control
# Protocol: Cell cultures were maintained between 4×10^5 and 3×10^6 cells/mL according to vendor instructions.
# Cell suspension from a confluent T75 flask (Fisher) was transferred to a 15 mL falcon tube and centrifuged at 1100 rpm for 7 minutes. […] Cells were counted using a Countess II Automated Cell Counter (Fisher). […] 199 μL of this stock was added to 24 wells (enough for triplicate measurements for 8 different experimental conditions) in a 96-well plate. […] 1 μL of DMSO or the appropriate stock solution of compound in DMSO was added to each well. Cells were incubated for 24 hours, at which point the cell suspensions were transferred to 1.5 mL Eppendorf tubes and diluted with 1.0 mL of PBS (Hyclone, without Ca^2+ or Mg^2+). Samples were centrifuged at 2000 rpm for 5 min at RT. […] Cells were sub-cultured between 2×10^5 and 3×10^6 cells/mL in 24-well plates for an additional 24 hrs-7 days, at which point CD22 surface expression was assayed by flow cytometry.
# Cells from one well were counted using a Countess II Automated Cell Counter (Fisher). ˜200,000-300,000 cells from each well were added to 1.5 mL Eppendorf tubes containing PBS (final volume ˜1.2 mL). The cell suspensions were centrifuged at 1500 rpm for 7 minutes at 4° C. The supernatant was aspirated, and the cell pellet was resuspended in 99 μL of pre-chilled FACS buffer (0.5% w/v BSA in PBS). […] Samples were then diluted with an additional 1.0 mL of FACS buffer and centrifuged at 1500 rpm for 7 minutes at 4° C. […] Cells were stained with DAPI and CD22 surface expression was analyzed using the FACScan Analyzer at the Stanford Shared FACS Facility. Data analysis was performed using FlowJo and Microsoft Excel.
Compound,cytosolic PKC translocated ([1]; 1000 nM) [%],concentration* (minimum effective concentration required to induce translocation of PKC-GFP to the membrane) [1] [nM],% Translocation [1] [%],fold induction at 0.001 µM [2],PKC translocation behavior / dynamics of PKC activation [1],Fold increase CD22 expression [2] [fold],"activity in the CD22 induction assay, in words ([2]; 1 nM or 10 nM, 24 hours)"
CCCCCC#CC(=O)O[C@H]1/C(=C/C(=O)OC)C[C@H]2C[C@H]([C@@H](C)O)OC(=O)C[C@H](O)C[C@@H]3C[C@H](OC(C)=O)C(C)(C)[C@](O)(C[C@@H]4C[C@@](O)(CO)C[C@H](/C=C/C(C)(C)[C@]1(O)O2)O4)O3 [SUW203],~50,1000,50,1.16,–,–,–
CCC/C=C/C=C/C(=O)O[C@H]1/C(=C/C(=O)OC)C[C@H]2C[C@H]([C@@H](C)O)OC(=O)C[C@H](O)C[C@@H]3C[C@H](OC(C)=O)C(C)(C)[C@](O)(C[C@@H]4C[C@@H](OC(C)=O)C[C@H](/C=C/C(C)(C)[C@]1(O)O2)O4)O3 [SUW207],–,200,60,1.33,almost identical behavior both to each other and to bryostatin 1,–,–
CCC/C=C/C=C/C(=O)O[C@H]1/C(=C/C(=O)OC)C[C@H]2C[C@H]([C@@H](C)O)OC(=O)C[C@H](O)C[C@@H]3C[C@H](OC(C)=O)C(C)(C)[C@](O)(C[C@@H]4C[C@H](OC(C)=O)C[C@H](/C=C/C(C)(C)[C@]1(O)O2)O4)O3 [SUW206],–,200,60,1.63,almost identical behavior both to each other and to bryostatin 1,–,–
CCCC=CC=CC(=O)OC1C(=CC(=O)OC)CC2CC(C(C)O)OC(=O)CC(O)CC3CC(OC(C)=O)C(C)(C)C(O)(CC4CC(=CC(=O)OCC)CC(C=CC(C)(C)C1(O)O2)O4)O3 (centres unmarked) [SUW217],–,200,75,–,–,1.97,–
C=CCOC(=O)/C=C1/C[C@H]2C[C@]3(O)O[C@H](C[C@@H](O)CC(=O)O[C@@H]([C@@H](C)O)C[C@@H]4C/C(=C\C(=O)OC)[C@H](OC(=O)/C=C/C=C/CCC)[C@@](O)(O4)C(C)(C)/C=C/[C@@H](C1)O2)C[C@H](OC(C)=O)C3(C)C [SUW229],–,200,50,–,more sustained linear activation dynamics,–,top performer
CCCC=CC=CC(=O)OC1C(=CC(=O)OC)CC2CC(C(C)O)OC(=O)CC(O)CC3CC(OC(C)=O)C(C)(C)C(O)(CC4CC(=CC(=O)OCC)CC(C=CC(C)(C)C1(O)O2)O4)O3 (centres unmarked) [SUW218],–,200,55,–,more sustained linear activation dynamics,1.92,–
CCCCCCCC(=O)O[C@H]1/C(=C/C(=O)OC)C[C@H]2C[C@H]([C@@H](C)O)OC(=O)C[C@H](O)C[C@@H]3C[C@H](OC(C)=O)C(C)(C)[C@](O)(C[C@@H]4C[C@@H](C)C[C@H](/C=C/C(C)(C)[C@]1(O)O2)O4)O3 [SUW226],–,200,75,1.76,–,–,–

# Reference: patent publication US20220193029A1, “BRYOSTATIN COMPOUNDS FOR ENHANCEMENT OF IMMUNOTHERAPY” (priority 2019, published 2022)
